{"source": "patent US10350315B2", "about": "“Quinoline-3-carboxamide compounds and their use in diagnosis” (Westfaelische Wihelms-Universitaet Muenster, priority 2014, dated 2019)", "key": {"[1]": {"molecular_target": "T1, S100A9 (Homo sapiens, UniProt P06702)", "T1 sequence (P06702 1-114)": "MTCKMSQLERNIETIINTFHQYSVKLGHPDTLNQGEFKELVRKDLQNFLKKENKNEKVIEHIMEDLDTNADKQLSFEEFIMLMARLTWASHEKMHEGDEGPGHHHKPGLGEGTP", "assay": "TLR4-S100A9 ELISA: blocking of S100A9 binding to TLR4/MD2", "settings": "S100A9 2 μg/ml, 100 μM CES271-Cy5.5, two hours at room temperature", "protocol": "FIG. 5: ELISA-based blocking study showing binding of S100A9 protein to TLR4/MD2 in the presence or absence of quinoline-3-carboxamide compounds covalently linked to a label, in this case Cy5.5-CES271.\nCy5.5-CES271 was successfully synthesized as described in the previous example. Studies were then conducted to verify that Cy5.5-CES271 maintained strong binding affinity for S100A9. In this regard, a specific ELISA (Enyme-linked Immunosorbent Assay) was developed to analyse S100A9 binding to TLR4. In this newly developed assay, the binding of S100A9 to TLR4 can be measured.\nBriefly, TLR4/MD2 (3146-TM-050/CF, R&D Systems) was coupled to the wells of a 96-well plate and served as capturing molecule. After blocking of the unspecific binding sites by PBS/5% skim milk powder, plates were washed three times. S100A9 protein was added at a concentration of 2 μg/ml in the presence or absence of 100 μM CES271-Cy5.5 and incubated for two hours at room temperature. Unbound S100 protein was removed by washing the plates for three times, followed by the addition of a primary anti-S100A9-antibody (1 μg/ml, polyclonal, rabbit). After a washing step, the secondary anti-rabbit-IgG-antibody coupled to HRP (1 μg/ml, Cell Signalling) was added. TMB was used as substrate for HRP to quantify binding efficiency by absorbance readings at 450 nm in an ELISA reader (Anthos Mikrosysteme)."}, "[2]": {"molecular_target": "T1, S100A9", "assay": "Binding constant to coated S100A9 by fluorimetric measurement (one site saturation model)", "settings": "human S100A9 homodimer coated, 1 h at 4° C.", "protocol": "(§1) FIG. 15: Binding of Cy5.5-CES271 to human and murine S100A9. Estimation of the binding constant of Cy5.5-CES271 to human (A) and murine (B) S100A9. The constant was calculated using the one site saturation regression model. Each dot represents the mean value of four independent experiments.\n(§2) The binding constant of Cy5.5-CES271 to murine and human S100A9 was determined by fluorimetric measurements. 0.3788 μM S100A9 (5 μg ml^−1 of homodimer S100A9) solved in 50 μl PBS was coated to the bottom of a 96-well plate and served as capturing molecule. For each S100A9 coated well a control well was used with 50 μl PBS alone. After a washing step, unspecific binding sites were blocked by PBS/5% skim milk powder. Cy5.5-CES271 was added at increasing concentrations. After 1 h incubation at 4° C., the supernatants were removed and the fluorescence intensity was measured with a fluorimeter. Non-linear regression analysis was performed with a one site saturation model, to calculate the binding constant of Cy5.5-CES271 to either murine or human S100A9. […] A strong binding affinity of the tracer to S100A9 could be observed that is not affected by the attachment of Cy5.5 to CES271."}, "[3]": {"molecular_target": "T2, murine S100A9 (Mus musculus, UniProt P31725)", "T2 sequence (P31725 1-113)": "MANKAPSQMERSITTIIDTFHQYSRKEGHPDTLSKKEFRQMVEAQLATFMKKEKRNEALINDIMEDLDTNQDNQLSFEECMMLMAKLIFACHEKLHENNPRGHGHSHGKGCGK", "assay": "Binding constant to coated S100A9 by fluorimetric measurement (one site saturation model)", "settings": "murine S100A9 homodimer coated, 1 h at 4° C.", "protocol": "as §1, §2"}, "[4]": {"molecular_target": "T3, S100A9 (Mus musculus, UniProt P31725)", "T3 construct": "from tissue; host or cells: living mice (inflamed ear, joints) and explanted mouse heart, aorta and lungs", "T3 sequence (P31725 2-113 limits assumed)": "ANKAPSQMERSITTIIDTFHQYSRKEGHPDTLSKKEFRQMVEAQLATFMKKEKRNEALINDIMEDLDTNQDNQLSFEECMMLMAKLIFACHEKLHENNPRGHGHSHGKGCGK", "assay": "Myocardial infarction mouse model, FRI of the explanted heart", "type": "in vivo, C57BI/6 mouse", "settings": "one day post LAD occlusion, two hours after i.v. injection of 2 nmol", "protocol": "FIG. 7: Accumulation of Cy5.5-CES271 in a mouse model of myocardial infarction. One day post occlusion of the LAD in a C57BI/6 mouse: FRI of the explanted heart (longitudinal mid-infarction cut) two hours after i.v. injection of 2 nmol Cy5.5-CES271. […] Furthermore, absence of S100A9 in the remote myocardium (RM) is accompanied by the lack of Cy5.5-CES271.\nMyocardial infarction was induced by opening the chest of a mouse and transient ligation of the left coronary artery for 60 minutes. The ischemic event triggers acute inflammatory response to the tissue injury in the first hours/days followed by a remodeling process (involving less intense inflammatory processes) after about one week. FRI was performed one day after the surgical intervention to assess the intense acute inflammatory response and the images in FIG. 7 were acquired two hours after injection of 2 nmol Cy5.5-CES-271. […] FRI of the explanted heart (longitudinal mid-infarction cut) two hours after i.v. injection of 2 nmol Cy5.5-CES271 is shown."}, "[5]": {"molecular_target": "T3, S100A9", "assay": "Atherosclerosis mouse model (HypoE, HFC diet), FRI of the explanted aorta", "type": "in vivo, SR-BI−/−/apoER61h/h mice (HypoE)", "settings": "10 days HFC diet, 2 h p.i.", "protocol": "FIG. 8: Accumulation of Cy5.5-CES271 in a mouse model of atherosclerosis in a HypoE mouse, 10 days on HFC diet.\nAtherosclerosis is an inflammatory disease of the vessel wall. SR-BI^−/−/apoE^R61 h/h-mice (HypoE) are known to develop atherosclerotic lesions especially when set on a high fat and high choleresterol diet (HFC). Typical predeliction site is the aortic arch. 12-14 week old mice were set on HFC diet for 10 days. At day 10 of HFC diet Cy5.5-CES271 was injected i.v., the mice were sacrificed two hours p.i., the aortic arches were explanted, and measured ex-vivo by FRI.\nThe hearts and aorta were fixed overnight in 4% paraformaldehyde and embedded in paraffin. Sections measuring 4 μm in thickness were analyzed. For immunohistochemistry, paraffin skin sections (4 μm) were dewaxed, blocked with 10% fetal bovine serum, and incubated with rabbit anti-S100A9 or MAC-3 antibodies for 1 h at room temperature followed by a goat-anti-rabbit biotinylated antibody and 3,3′ diaminobenzidine (DAB)."}}}
{"substance": "3-ethyl-2((1E,3E,5E)-5-(3-(1-(5-ethyl-4-hydroxy-1-methyl-2-oxo-1,2-dihydroquinolin-3-yl)-1,15-dioxo-2-phenyl-5,8,11-trioxa-2,14-diazanonadecan-19-yl)-1,1-dimethyl-6,8-disulfonato-1H-benzo[e]indol-2(3H)-ylidene)penta-1,3-dien-1-yl)-1,1-dimethyl-1H-benzo[e]indol-3-ium-6,8-disulfonate [Cy5.5-CES271]", "values": [{"measurement": "Blocking of binding of S100A9 to TLR4/MD2 (decrease of ELISA signal, absorbance 450 nm)", "setting": "[1]", "result": "markedly block"}, {"measurement": "Kd", "setting": "[2]", "result": 2060, "unit": "nM"}, {"measurement": "Kd", "setting": "[3]", "result": 2660, "unit": "nM"}, {"measurement": "Accumulation in the myocardial infarction (MI)", "setting": "[4]", "result": "accumulates in the myocardial infarction"}, {"measurement": "Accumulation in the remote myocardium (RM)", "setting": "[4]", "result": "lack of Cy5.5-CES271 accumulation"}, {"measurement": "Accumulation in plaque lesions of the explanted aorta", "setting": "[5]", "result": "accumulation"}]}
